How the values were obtained:
[1] = target: Dual specificity mitogen-activated protein kinase kinase 2 (Homo sapiens) (UniProt P36507); conditions: Compound concentration 100.0 nM
[2] = target: Ephrin type-A receptor 6 (Homo sapiens) (UniProt Q9UF33); conditions: Compound concentration 100.0 nM
[3] = system: Mast/stem cell growth factor receptor Kit (Homo sapiens), P10721 [V559D]; conditions: Compound concentration 100.0 nM
[4] = target: Mitogen-activated protein kinase kinase kinase 13 (Homo sapiens) (UniProt O43283); conditions: Compound concentration 100.0 nM
[5] = target: Casein kinase I isoform gamma-2 (Homo sapiens) (UniProt P78368); conditions: Compound concentration 100.0 nM
Chain of Casein kinase I isoform gamma-2 (Homo sapiens) (P78368 whole entry, looked up, canonical isoform): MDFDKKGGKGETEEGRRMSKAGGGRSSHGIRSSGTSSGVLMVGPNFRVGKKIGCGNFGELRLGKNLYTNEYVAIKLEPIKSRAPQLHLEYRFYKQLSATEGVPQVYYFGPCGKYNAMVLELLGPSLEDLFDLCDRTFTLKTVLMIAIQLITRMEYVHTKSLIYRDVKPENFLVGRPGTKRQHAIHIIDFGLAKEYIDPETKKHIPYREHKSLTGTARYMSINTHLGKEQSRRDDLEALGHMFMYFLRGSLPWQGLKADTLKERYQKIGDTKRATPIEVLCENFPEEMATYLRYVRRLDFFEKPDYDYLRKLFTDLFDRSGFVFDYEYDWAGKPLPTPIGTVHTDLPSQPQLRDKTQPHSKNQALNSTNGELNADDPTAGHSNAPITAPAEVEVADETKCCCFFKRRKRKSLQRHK

[6] = system: Tyrosine-protein kinase ABL1 (Homo sapiens), P00519 [F317L]; conditions: Compound concentration 100.0 nM
[7] = target: Serine/threonine-protein kinase PAK 1 (Homo sapiens) (UniProt Q13153); conditions: Compound concentration 100.0 nM
Chain of Serine/threonine-protein kinase PAK 1 (Homo sapiens) (Q13153 whole entry): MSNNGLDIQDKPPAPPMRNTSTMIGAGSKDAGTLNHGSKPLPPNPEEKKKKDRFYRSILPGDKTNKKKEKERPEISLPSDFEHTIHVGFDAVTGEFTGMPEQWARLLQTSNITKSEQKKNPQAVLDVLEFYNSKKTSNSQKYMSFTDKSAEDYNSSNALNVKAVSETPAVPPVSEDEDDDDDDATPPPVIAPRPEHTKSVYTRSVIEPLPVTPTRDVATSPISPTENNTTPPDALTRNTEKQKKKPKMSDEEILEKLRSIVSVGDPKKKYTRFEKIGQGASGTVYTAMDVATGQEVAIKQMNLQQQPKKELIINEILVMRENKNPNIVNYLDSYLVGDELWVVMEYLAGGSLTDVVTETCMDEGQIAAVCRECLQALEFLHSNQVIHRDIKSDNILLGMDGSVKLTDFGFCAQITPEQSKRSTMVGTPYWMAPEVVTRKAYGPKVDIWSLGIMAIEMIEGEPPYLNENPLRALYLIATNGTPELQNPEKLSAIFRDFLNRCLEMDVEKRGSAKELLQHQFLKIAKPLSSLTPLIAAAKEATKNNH

[8] = target: Glycogen synthase kinase-3 beta (Homo sapiens) (UniProt P49841); conditions: Compound concentration 100.0 nM
[9] = target: Mitogen-activated protein kinase 4 (Homo sapiens) (UniProt P31152); conditions: Compound concentration 100.0 nM
[10] = target: Mitogen-activated protein kinase kinase kinase 1 (Homo sapiens) (UniProt Q13233); conditions: Compound concentration 100.0 nM
[11] = system: Receptor-type tyrosine-protein kinase FLT3 (Homo sapiens), P36888 [N841I]; conditions: Compound concentration 100.0 nM
[12] = target: 5'-AMP-activated protein kinase catalytic subunit alpha-2 (Homo sapiens) (UniProt P54646); conditions: Compound concentration 100.0 nM
[13] = target: Phosphatidylinositol 4,5-bisphosphate 3-kinase catalytic subunit beta isoform (Homo sapiens) (UniProt P42338); conditions: Compound concentration 100.0 nM
Chain of Phosphatidylinositol 4,5-bisphosphate 3-kinase catalytic subunit beta isoform (Homo sapiens) (P42338 whole entry, looked up, canonical isoform): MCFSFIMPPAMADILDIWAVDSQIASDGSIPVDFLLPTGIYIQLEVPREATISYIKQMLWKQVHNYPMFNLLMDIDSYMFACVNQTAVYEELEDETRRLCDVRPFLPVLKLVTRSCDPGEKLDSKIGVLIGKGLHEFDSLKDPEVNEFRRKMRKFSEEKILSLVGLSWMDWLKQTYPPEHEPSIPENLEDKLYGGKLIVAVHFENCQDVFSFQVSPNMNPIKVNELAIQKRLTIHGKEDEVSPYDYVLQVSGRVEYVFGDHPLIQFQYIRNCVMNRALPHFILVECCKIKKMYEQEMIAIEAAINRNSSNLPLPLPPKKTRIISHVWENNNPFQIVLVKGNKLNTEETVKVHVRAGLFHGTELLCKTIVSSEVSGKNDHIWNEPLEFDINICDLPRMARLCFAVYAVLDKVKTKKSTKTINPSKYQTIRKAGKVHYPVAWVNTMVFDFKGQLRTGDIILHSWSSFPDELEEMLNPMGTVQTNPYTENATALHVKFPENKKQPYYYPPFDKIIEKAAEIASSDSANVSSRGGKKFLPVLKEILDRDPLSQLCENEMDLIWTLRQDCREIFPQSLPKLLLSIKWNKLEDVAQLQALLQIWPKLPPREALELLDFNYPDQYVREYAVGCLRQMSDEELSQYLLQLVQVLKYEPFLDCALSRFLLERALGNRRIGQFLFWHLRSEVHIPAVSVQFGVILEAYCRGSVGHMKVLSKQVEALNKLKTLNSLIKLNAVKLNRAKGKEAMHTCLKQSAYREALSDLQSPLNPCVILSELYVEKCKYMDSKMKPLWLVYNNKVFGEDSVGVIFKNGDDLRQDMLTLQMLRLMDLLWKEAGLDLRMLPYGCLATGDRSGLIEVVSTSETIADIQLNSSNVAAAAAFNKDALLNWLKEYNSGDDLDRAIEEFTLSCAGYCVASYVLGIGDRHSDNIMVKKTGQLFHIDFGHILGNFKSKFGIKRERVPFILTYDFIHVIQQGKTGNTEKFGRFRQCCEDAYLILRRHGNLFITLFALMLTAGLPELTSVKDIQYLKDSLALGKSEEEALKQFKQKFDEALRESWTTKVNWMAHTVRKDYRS

[14] = target: Insulin-like growth factor 1 receptor (Homo sapiens) (UniProt P08069); conditions: Compound concentration 100.0 nM
[15] = target: Dual specificity mitogen-activated protein kinase kinase 7 (Homo sapiens) (UniProt O14733); conditions: Compound concentration 100.0 nM
[16] = target: G protein-coupled receptor kinase 3 (Homo sapiens) (UniProt P35626); conditions: Compound concentration 100.0 nM
[17] = target: Tyrosine-protein kinase JAK1 (Homo sapiens) (UniProt P23458); conditions: Compound concentration 100.0 nM
[18] = target: Serine/threonine-protein kinase D2 (Homo sapiens) (UniProt Q9BZL6); conditions: Compound concentration 100.0 nM
Chain of Serine/threonine-protein kinase D2 (Homo sapiens) (Q9BZL6 whole entry): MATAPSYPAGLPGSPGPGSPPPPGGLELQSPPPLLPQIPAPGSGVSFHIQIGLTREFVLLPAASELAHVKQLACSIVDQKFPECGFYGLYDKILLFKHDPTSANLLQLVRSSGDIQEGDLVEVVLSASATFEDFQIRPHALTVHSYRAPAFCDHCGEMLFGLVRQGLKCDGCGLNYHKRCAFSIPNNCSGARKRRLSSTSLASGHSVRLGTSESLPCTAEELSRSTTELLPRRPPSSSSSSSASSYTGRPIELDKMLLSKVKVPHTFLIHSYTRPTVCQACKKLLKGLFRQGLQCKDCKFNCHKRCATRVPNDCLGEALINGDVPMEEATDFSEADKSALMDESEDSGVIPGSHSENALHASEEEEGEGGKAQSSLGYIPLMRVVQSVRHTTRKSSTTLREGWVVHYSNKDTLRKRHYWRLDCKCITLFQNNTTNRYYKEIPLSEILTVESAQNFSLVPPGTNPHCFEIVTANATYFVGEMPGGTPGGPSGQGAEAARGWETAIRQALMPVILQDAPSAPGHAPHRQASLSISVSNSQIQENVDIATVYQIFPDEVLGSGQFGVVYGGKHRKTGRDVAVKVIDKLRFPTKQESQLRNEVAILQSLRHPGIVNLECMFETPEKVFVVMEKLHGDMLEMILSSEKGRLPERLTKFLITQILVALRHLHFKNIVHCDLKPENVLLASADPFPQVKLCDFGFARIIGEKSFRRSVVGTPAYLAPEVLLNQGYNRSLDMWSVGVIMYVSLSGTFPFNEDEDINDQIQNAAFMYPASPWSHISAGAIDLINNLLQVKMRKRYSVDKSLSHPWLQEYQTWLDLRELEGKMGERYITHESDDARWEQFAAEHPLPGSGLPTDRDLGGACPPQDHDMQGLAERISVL

[19] = target: Rhodopsin kinase GRK7 (Homo sapiens) (UniProt Q8WTQ7); conditions: Compound concentration 100.0 nM
[20] = target: Interleukin-1 receptor-associated kinase 1 (Homo sapiens) (UniProt P51617); conditions: Compound concentration 100.0 nM
[21] = target: 3-phosphoinositide-dependent protein kinase 1 (Homo sapiens) (UniProt O15530); conditions: Compound concentration 100.0 nM
[22] = target: Tyrosine-protein kinase Fer (Homo sapiens) (UniProt P16591); conditions: Compound concentration 100.0 nM
[23] = target: Receptor-interacting serine/threonine-protein kinase 2 (Homo sapiens) (UniProt O43353); conditions: Compound concentration 100.0 nM
[24] = system: ALK tyrosine kinase receptor (Homo sapiens), Q9UM73 [L1196M]; conditions: Compound concentration 100.0 nM
[25] = target: Tyrosine-protein kinase Mer (Homo sapiens) (UniProt Q12866); conditions: Compound concentration 100.0 nM
[26] = system: Receptor-type tyrosine-protein kinase FLT3 (Homo sapiens), P36888 [UNDEFINED MUTATION]; conditions: Compound concentration 100.0 nM
[27] = target: Cyclin-dependent kinase 4 (Homo sapiens) (UniProt P11802); conditions: Compound concentration 100.0 nM
[28] = target: Dual specificity mitogen-activated protein kinase kinase 4 (Homo sapiens) (UniProt P45985); conditions: Compound concentration 100.0 nM
[29] = system: ALK tyrosine kinase receptor (Homo sapiens), Q9UM73 [C1156Y]; conditions: Compound concentration 100.0 nM
[30] = target: Ephrin type-A receptor 2 (Homo sapiens) (UniProt P29317); conditions: Compound concentration 100.0 nM
[31] = target: Serine/threonine-protein kinase ULK2 (Homo sapiens) (UniProt Q8IYT8); conditions: Compound concentration 100.0 nM
[32] = target: STE20/SPS1-related proline-alanine-rich protein kinase (Homo sapiens) (UniProt Q9UEW8); conditions: Compound concentration 100.0 nM
[33] = target: Macrophage colony-stimulating factor 1 receptor (Homo sapiens) (UniProt P07333); conditions: Compound concentration 100.0 nM
[34] = target: Focal adhesion kinase 1 (Homo sapiens) (UniProt Q05397); conditions: Compound concentration 100.0 nM
[35] = target: Mitogen-activated protein kinase kinase kinase 9 (Homo sapiens) (UniProt P80192); conditions: Compound concentration 100.0 nM
[36] = target: Serine/threonine-protein kinase PLK1 (Homo sapiens) (UniProt P53350); conditions: Compound concentration 100.0 nM
[37] = target: Serine/threonine-protein kinase LATS1 (Homo sapiens) (UniProt O95835); conditions: Compound concentration 100.0 nM
Chain of Serine/threonine-protein kinase LATS1 (Homo sapiens) (O95835 whole entry, the tested form may be a part): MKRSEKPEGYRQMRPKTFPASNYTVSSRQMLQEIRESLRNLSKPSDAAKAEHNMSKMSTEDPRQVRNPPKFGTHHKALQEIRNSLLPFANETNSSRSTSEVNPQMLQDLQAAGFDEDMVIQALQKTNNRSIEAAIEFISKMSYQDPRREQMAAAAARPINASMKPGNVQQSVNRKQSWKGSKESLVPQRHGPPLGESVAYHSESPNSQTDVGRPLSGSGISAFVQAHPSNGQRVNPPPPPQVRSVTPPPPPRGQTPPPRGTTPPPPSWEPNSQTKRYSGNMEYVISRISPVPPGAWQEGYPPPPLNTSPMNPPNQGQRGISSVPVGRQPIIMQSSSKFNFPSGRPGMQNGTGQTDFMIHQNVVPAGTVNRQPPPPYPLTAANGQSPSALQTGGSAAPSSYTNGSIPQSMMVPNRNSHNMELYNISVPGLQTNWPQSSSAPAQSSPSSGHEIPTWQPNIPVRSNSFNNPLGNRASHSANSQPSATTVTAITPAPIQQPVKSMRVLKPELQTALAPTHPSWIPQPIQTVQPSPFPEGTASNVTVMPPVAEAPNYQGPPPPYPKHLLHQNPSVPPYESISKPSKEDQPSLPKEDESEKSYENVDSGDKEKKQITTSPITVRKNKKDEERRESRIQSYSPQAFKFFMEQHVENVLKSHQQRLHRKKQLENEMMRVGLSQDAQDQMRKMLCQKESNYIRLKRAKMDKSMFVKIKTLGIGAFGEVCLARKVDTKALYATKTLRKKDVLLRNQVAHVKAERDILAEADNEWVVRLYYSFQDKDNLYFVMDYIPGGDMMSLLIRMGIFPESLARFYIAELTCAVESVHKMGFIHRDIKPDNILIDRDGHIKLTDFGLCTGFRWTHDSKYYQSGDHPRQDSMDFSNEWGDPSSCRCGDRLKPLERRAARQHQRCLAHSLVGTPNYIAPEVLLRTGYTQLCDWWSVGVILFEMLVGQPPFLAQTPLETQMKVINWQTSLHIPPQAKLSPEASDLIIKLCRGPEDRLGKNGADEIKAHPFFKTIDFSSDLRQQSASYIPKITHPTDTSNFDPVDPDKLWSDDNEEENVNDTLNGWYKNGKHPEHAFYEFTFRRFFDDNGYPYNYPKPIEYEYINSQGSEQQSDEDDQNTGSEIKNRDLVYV

[38] = target: Ankyrin repeat and protein kinase domain-containing protein 1 (Homo sapiens) (UniProt Q8NFD2); conditions: Compound concentration 100.0 nM
[39] = target: 5-hydroxytryptamine receptor 1B (Homo sapiens) (UniProt P28222); conditions: Compound concentration 10.0 uM
[40] = target: Tyrosine-protein kinase Yes (Homo sapiens) (UniProt P07947); conditions: Compound concentration 100.0 nM
[41] = system: Epidermal growth factor receptor (Homo sapiens), P00533 [T790M]; conditions: Compound concentration 100.0 nM
[42] = target: Serine/threonine-protein kinase DCLK3 (Homo sapiens) (UniProt Q9C098); conditions: Compound concentration 100.0 nM
[43] = target: Cyclin-dependent kinase 3 (Homo sapiens) (UniProt Q00526); conditions: Compound concentration 100.0 nM
[44] = target: Ribosomal protein S6 kinase alpha-3 (Homo sapiens) (UniProt P51812); conditions: Compound concentration 100.0 nM
[45] = system: Receptor-type tyrosine-protein kinase FLT3 (Homo sapiens), P36888 [D835V]; conditions: Compound concentration 100.0 nM

Chain of Mast/stem cell growth factor receptor Kit (Homo sapiens), P10721 [V559D] (P10721 whole entry V559D): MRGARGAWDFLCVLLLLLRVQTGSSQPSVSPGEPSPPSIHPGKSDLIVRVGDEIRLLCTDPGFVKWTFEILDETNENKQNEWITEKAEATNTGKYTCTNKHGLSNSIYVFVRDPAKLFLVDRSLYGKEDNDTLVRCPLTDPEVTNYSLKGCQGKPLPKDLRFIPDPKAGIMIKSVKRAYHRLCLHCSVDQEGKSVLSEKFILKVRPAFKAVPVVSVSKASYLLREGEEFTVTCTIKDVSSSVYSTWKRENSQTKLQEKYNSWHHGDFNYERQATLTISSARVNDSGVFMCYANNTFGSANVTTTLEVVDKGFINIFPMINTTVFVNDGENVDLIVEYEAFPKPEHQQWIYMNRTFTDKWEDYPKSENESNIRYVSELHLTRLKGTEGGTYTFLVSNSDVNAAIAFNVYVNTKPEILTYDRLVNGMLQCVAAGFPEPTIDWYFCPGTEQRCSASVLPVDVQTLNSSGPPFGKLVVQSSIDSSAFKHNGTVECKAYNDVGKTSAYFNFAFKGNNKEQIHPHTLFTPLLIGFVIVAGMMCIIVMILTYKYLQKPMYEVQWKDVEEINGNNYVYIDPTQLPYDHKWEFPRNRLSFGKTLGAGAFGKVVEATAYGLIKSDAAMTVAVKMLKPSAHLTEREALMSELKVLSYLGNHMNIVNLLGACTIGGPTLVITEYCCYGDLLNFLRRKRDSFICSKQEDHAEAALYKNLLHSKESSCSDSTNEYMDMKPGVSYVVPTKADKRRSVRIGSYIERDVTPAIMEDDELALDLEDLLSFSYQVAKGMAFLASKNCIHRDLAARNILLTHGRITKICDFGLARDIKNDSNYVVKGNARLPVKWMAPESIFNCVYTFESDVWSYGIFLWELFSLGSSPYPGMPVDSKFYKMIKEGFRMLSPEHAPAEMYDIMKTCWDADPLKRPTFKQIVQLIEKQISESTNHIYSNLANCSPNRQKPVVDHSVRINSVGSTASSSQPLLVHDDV

COCCOc1nc(-c2ccc(Cl)nc2)nc2c1CN(C(=O)c1ncn3ccccc13)CC2 [THPP-1]
inactive: residual activity [1] 100% | residual activity [2] 100% | residual activity [3] 100% | residual activity [4] 87% | residual activity [5] 94% | residual activity [6] 100% | residual activity [7] 100% | residual activity [8] 100% | residual activity [9] 100% | residual activity [10] 100% | residual activity [11] 100% | residual activity [12] 100% | residual activity [13] 100% | residual activity [14] 82% | residual activity [15] 95% | residual activity [16] 100% | residual activity [17] 100% | residual activity [18] 100% | residual activity [19] 91% | residual activity [20] 100% | residual activity [21] 90% | residual activity [22] 100% | residual activity [23] 100% | residual activity [24] 100% | residual activity [25] 89% | residual activity [26] 96% | residual activity [27] 93% | residual activity [28] 100% | residual activity [29] 100% | residual activity [30] 100% | residual activity [31] 100% | residual activity [32] 100% | residual activity [33] 100% | residual activity [34] 99% | residual activity [35] 100% | residual activity [36] 100% | residual activity [37] 70% | residual activity [38] 100% | inhibition [39] 23.3% | residual activity [40] 100% | residual activity [41] 61% | residual activity [42] 100% | residual activity [43] 100% | residual activity [44] 82% | residual activity [45] 100%

CC(C)CC(=O)N1CCc2nc(-c3ccc(Br)cc3)nc(N(C)Cc3ccccc3)c2C1 [THPP-1-NC]
inactive: residual activity [1] 100% | residual activity [2] 100% | residual activity [3] 100% | residual activity [4] 66% | residual activity [5] 86% | residual activity [6] 100% | residual activity [7] 100% | residual activity [8] 100% | residual activity [9] 100% | residual activity [10] 100% | residual activity [11] 100% | residual activity [12] 100% | residual activity [13] 100% | residual activity [14] 83% | residual activity [15] 79% | residual activity [16] 100% | residual activity [17] 100% | residual activity [18] 100% | residual activity [19] 74% | residual activity [20] 100% | residual activity [21] 100% | residual activity [22] 100% | residual activity [23] 100% | residual activity [24] 100% | residual activity [25] 100% | residual activity [26] 99% | residual activity [27] 100% | residual activity [28] 97% | residual activity [29] 100% | residual activity [30] 100% | residual activity [31] 89% | residual activity [32] 100% | residual activity [33] 100% | residual activity [34] 92% | residual activity [35] 91% | residual activity [36] 100% | residual activity [37] 67% | residual activity [38] 100% | inhibition [39] 12.9% | residual activity [40] 100% | residual activity [41] 74% | residual activity [42] 100% | residual activity [43] 100% | residual activity [44] 67% | residual activity [45] 95%

Reference: ChEMBL document CHEMBL4507293 (2021)
